According to patent publication US10808008B2, “Aromatic-cationic peptides and uses of same” (Cornell University, priority 2012, dated 2020):

Experiments:
[1] = target: T1, cytochrome c (Equus caballus, UniProt P00004); experiment: Fluorescence quenching of labelled peptides by cytochrome c; format: binding, horse; set-up: from tissue; host or cells: horse heart; settings: additions of 75 μg/ml BSA
[2] = Fluorescence spectroscopy of labelled peptide with other phospholipids; format: binding; settings: 1 μM peptide
Procedure: 1-palmitoyl-2-oleoyl-sn-glycero-3-phosphocholine (POPC), 1-palmitoyl-2-oleoyl-sn-glycero-3-phosphate (POPA), 1-palmitoyl-2-oleoyl-sn-glycero-3-phospho-L-serine (POPS), 1-palmitoyl-2-oleoyl-sn-glycero-3-phosphoethanolamine (PE), and 1,2-dipalmitoyl-sn-glycero-3-phospho-(1′-rac-glycerol) (DPPG) were obtained from Avanti Polar Lipids Inc (Alabaster, Ala.).
Changes in the emission intensity of the [atn]SS-02 and the [ald]SS-02 were measured using a Hitachi F-4500 fluorescence spectrophotometer. The different solvents used to dissolve the various phospholipids (chloroform, methanol and ethanol) had negligible effect on the fluorescence spectrum of [atn]SS-02 and [ald]SS-02. All experiments were done in low ionic solution (deionized water) to optimize electrostatic interactions of peptides with phospholipids.

[3] = test system: isolated mitochondria; experiment: ATP synthesis in isolated mitochondria; format: biochemical, rat
Procedure: (§1) Fresh mitochondria were isolated from rat kidney as described previously. Electron flux was measured by O2 consumption (Oxygraph Clark electrode) as previously described using different substrates for C1 (glutamate/malate), C2 (succinate), and C3 (TMPD/ascorbate). Assays were carried out under low substrate conditions in order to avoid saturating the enzyme reactions. ATP production in isolated mitochondria was determined kinetically using the luciferase method (Biotherma) in a 96-well luminescence plate reader (Molecular Devices). The initial maximal rate for ATP synthesis was determined over the first minute.
The rate of mitochondrial ATP synthesis was determined by measuring ATP in respiration buffer collected from isolated mitochondria 1 min after addition of […] (FIG. 6). ATP was assayed by HPLC. All experiments were carried out in triplicate, with n=3. […] Accordingly, aromatic-cationic peptides of the present disclosure are useful for increasing ATP synthesis in mitochondria and for treating diseases or disorder characterized by dysregulation of ATP synthesis.
(§2) SS-20 or SS-31 was added at 100 μM concentrations to isolated mitochondria in respiration buffer containing 0.5 mM succinate (complex II substrate) and 400 μM ADP. Similar increases in O2 consumption were observed when low concentrations of complex I substrates (glutamate/malate) were used (data not shown). […] Accordingly, targeting SS-20 and SS-31 to the IMM can facilitate electron flux in the electron transport chain and improve ATP synthesis, especially under conditions of reduced substrate supply.
Increase in electron flux in the electron transport chain can either result in increase in ATP synthesis or increase in electron leak and generation of free radicals. ATP synthesis in isolated mitochondria was assayed by HPLC. […] Accordingly, aromatic-cationic peptides of the present disclosure are useful for increasing ATP synthesis in mitochondria and for treating diseases or disorder characterized by dysregulation of ATP synthesis.

[4] = target: T1, cytochrome c; experiment: Circular dichroism of Soret band of cytochrome c; format: biochemical
Procedure: Circular dichroism (Olis spectropolarimeter, DSM20) was carried out to monitor Soret band (negative peak at 415 nm), as a probe for the π-π* heme environment in cytochrome c (FIG. 4). […] The increase in π-π* interaction around the heme would enhance electron tunneling which would be favorable for electron diffusion. Accordingly, aromatic-cationic peptides of the present disclosure are useful for the prevention or treatment of diseases or disorders characterized by dysregulation of cytochrome c, and to induce novel π-π interactions around cytochrome c heme.

[5] = test system: isolated rat kidney mitochondria; experiment: O2 consumption in isolated mitochondria; format: biochemical
Procedure: as §1
Oxygen consumption of isolated rat kidney mitochondria was determined using the Oxygraph (FIG. 5). Rates of respiration were measured in the presence of different concentrations of SS-31 in state 2 (400 μM ADP only), state 3 (400 μM ADP and 500 μM substrates) and state 4 (substrates only). All experiments were done in triplicate with n=4−7. […] Accordingly, aromatic-cationic peptides of the present disclosure are useful for promoting electron transfer to oxygen without uncoupling mitochondria, increasing O2 consumption, and treating diseases or conditions related to dysregulation of O2 consumption in mitochondria.
as §2
SS-20 or SS-31 was added at 10 μM or 100 μM concentrations to isolated mitochondria in respiration buffer containing glutamate/malate (complex I substrate), 0.5 mM succinate (complex II substrate) or 3 μM TMPD/1 mM ascorbate (direct reductant of cytochrome c). 400 μM ADP was added to initiate State 3 respiration.

[6] = target: T1, cytochrome c; experiment: Photoluminescence of cytochrome c; format: biochemical; settings: excitation 532.8 nm
Procedure: Photoluminescence (PL) was carried out to examine the effects of SS-31 on the electronic structure of conduction band of the heme of cytochrome c, an energy state responsible for electronic transport (FIG. 3). A […] laser (532.8 nm) was used to excite electrons in cytochrome c (FIG. 3A). Strong PL emission in cytochrome c state can be clearly identified at 650 nm (FIG. 3B). […] Accordingly, aromatic-cationic peptides of the present disclosure are useful for the prevention or treatment of diseases or disorders characterized by dysregulation of cytochrome c, for enhancing electron capacity in cytochrome c, and for treatment of diseases or disorders characterized by dysregulation of electron capacity in cytochrome c.

T1 sequence (P00004 2-105 limits assumed): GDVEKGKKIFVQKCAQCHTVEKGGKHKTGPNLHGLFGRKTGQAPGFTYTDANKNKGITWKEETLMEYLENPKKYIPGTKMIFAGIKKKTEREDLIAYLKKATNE

Substance: 2′,6′-Dmt-D-Arg-Phe-(atn)Dap-NH2 [SS-19]
- reversal of cytochrome c quenching by BSA [1]: did not reverse quenching

Substance: 2′,6′-Dmt-D-Arg-Ald-Lys-NH2 [SS-36]
- interaction with POPC, POPE and neutral cholesterol [2]: No interaction

Substance: D-Arg-2′,6′-Dmt-Lys-Phe-NH2 [SS-31]
- rate of ATP synthesis ([3]; 1 min after addition of 400 mM ADP, HPLC): dose-dependently increased the rate of ATP synthesis
- ATP synthesis ([3]; assayed by HPLC (Example 18)): dose-dependently increased ATP synthesis
- rate of ATP production ([3]; mitochondria energized with low concentrations of succinate): significant increase in the rate of ATP production
- position of Soret band negative peak after peptide (415 nm before) [4]: 440 nm
- O2 consumption in state 3 respiration ([5]; 10 μM or 100 μM peptide, complex I or complex II substrates or TMPD/ascorbate, 400 μM ADP): increased O2 consumption in state 3 respiration
- electron flux measured by O2 consumption ([5]; 100 μM peptide, 0.5 mM succinate, 400 μM ADP): promote electron flux
- electron transfer to oxygen (rates of respiration) ([5]; state 2, state 3 and state 4, different concentrations of SS-31): promoted electron transfer to oxygen without uncoupling mitochondria
- photoluminescence (PL) intensity of cytochrome c at 650 nm [6]: increased dose-dependently
